# Assay results as given in patent US20100227853A1, “INHIBITORS OF CYCLIC AMP PHOSPHODIESTERASES” (Trustees of Boston College, priority 2008, published 2010).
# Target: T1, PDE4B3 (Mus musculus, UniProt Q8VBU5)
# T1 construct: targets used in the assays are full-length proteins (as opposed to simply the catalytic domain); expressed in transfected cells; host or cells: Schizosaccharomyces pombe, PDE gene integrated in place of cgs2
# T1 sequence (Q8VBU5 1-721): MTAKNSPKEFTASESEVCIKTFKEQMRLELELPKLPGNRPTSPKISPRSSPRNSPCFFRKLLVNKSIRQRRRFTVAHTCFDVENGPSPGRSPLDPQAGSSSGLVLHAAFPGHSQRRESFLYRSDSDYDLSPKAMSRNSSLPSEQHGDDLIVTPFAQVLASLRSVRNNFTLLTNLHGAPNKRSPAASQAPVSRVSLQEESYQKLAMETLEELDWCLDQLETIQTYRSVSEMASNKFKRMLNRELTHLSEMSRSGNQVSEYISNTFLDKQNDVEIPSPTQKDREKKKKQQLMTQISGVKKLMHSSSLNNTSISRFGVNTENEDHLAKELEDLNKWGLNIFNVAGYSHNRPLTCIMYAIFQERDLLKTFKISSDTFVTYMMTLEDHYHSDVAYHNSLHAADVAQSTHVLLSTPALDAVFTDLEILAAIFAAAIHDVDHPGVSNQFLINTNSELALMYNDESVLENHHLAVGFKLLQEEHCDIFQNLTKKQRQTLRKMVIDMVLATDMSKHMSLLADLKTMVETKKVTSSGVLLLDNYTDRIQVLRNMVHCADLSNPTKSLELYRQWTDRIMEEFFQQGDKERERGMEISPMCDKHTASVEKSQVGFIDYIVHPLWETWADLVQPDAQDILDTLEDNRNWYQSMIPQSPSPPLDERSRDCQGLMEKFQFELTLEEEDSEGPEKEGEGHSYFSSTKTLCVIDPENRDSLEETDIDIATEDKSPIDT
# Assay: 5FOA growth assay in fission yeast strain expressing PDE4B3
# Type: cell-based, Murine
# Settings: 2 uM
# Outline: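 Fission yeast strains carrying mouse PDE4A1 or PDE4B3 and an fbp1-ura4 reporter were pregrown in EMM with 0.5–2.5 mM cAMP, then seeded at 0.5–4×10^5 cells/ml in 5FOA medium with compound. Growth was read as OD600 after 48 h at 30° C; composite Z scores were derived.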
row,"2 Assay (2 uM), 4B3",Structure (SMILES)
1,22.05,COC(=O)C1=C(C)N(c2ccccc2Cl)C(=O)/C1=C\c1cccs1 [Compound 27]
2,37.54,COC(=O)C1=C(C)N(C2CCCCC2)C(=O)/C1=C\c1cccs1 [Compound 22]
3,5.21,N#Cc1sc2sc(C#N)c(-c3ccco3)c2c1N [Compound 30]

# Same assay, conditions: 2 uM; PDE 4B3
row,"2 Assay (2 uM), 4B3",Structure (SMILES)
1,19.00,COc1ccc2c(c1)[C@@]1(C)CCC[C@](C)(CO)C1CC2 (stereo partly drawn) [Compound 2067M03]
2,8.18,Cc1ccc2c(c1)CCC1CC(=O)CC[C@]21C (stereo partly drawn) [Compound 2158J12]

# Same assay, conditions: 20 uM
row,Structure (SMILES),1 Assay (20 uM) 4B3
1,COC(=O)C1=C(C)N(c2ccccc2Cl)C(=O)/C1=C\c1cccs1 [Compound 27],−0.26
2,COC(=O)C1=C(C)N(C2CCCCC2)C(=O)/C1=C\c1cccs1 [Compound 22],70.26
3,N#Cc1sc2sc(C#N)c(-c3ccco3)c2c1N [Compound 30],4.67
4,"COC(=O)C1=C(C)N(c2ccc(C(C)C)cc2)C(=O)/C1=C\c1ccco1 [2008, 019]",−2.99 ND ND ND ND

# Further lines, results first:
row,1 Assay (20 uM) 4B3,Structure (SMILES)
1,−0.61 ND ND ND ND,"COC(=O)C1=C(C)N(c2ccccc2)/C(=C/c2cccs2)C1=O [2008, K19]"
2,24.16 ND ND ND ND,"COC(=O)C1/C(=C/c2cccc(OC)c2O)C(=O)N(c2ccccc2F)C1C (stereo not drawn) [2008, C21]"

# Same assay, conditions: 20 uM; PDE 4B3
row,1 Assay (20 uM) 4B3,Structure (SMILES)
1,0.29 ND ND ND ND,"CCCCn1c2ccccc2c2nc3ccccc3nc21 [2013, I20]"
2,1.17 ND ND ND ND,"CC(C)Cn1c2ccc(Br)cc2c2nc3ccccc3nc21 [2015, L04]"
3,83.22 ND ND ND ND,"c1ccc(CCn2c3ccccc3c3nc4ccccc4nc32)cc1 [2019, G03]"
4,13.34,COc1ccc2c(c1)[C@@]1(C)CCC[C@](C)(CO)C1CC2 (stereo partly drawn) [Compound 2067M03]
5,37.13,Cc1ccc2c(c1)CCC1CC(=O)CC[C@]21C (stereo partly drawn) [Compound 2158J12]
6,0.13 ND ND ND ND,"CCc1ccc2c(c1)c1nc3ccccc3nc1n2CC [2015, P06]"
7,200.51,Cc1ccc2c(c1)c1nc3ccccc3nc1n2C(C)C [Compound 41]
8,56.91 ND ND ND ND,"C=CCn1c2ccc(Br)cc2c2nc3ccccc3nc21 [2017, C18]"
9,103.11 ND ND ND ND,"C=Cn1c2ccccc2c2nc3ccccc3nc21 [2033, H06]"

# Same assay, conditions: high throughput 5FOA growth screen
row,Structure (SMILES),"Composite Z score, PDE4B3"
1,c1nc(NCCCN2CCOCC2)c2c3c(sc2n1)CCCC3 [Compound 2051N22],−0.998
2,CCNc1nc(SCC(=O)OCC)nc2sc3c(c12)CCC(C)C3 (stereo not drawn) [Compound 2053H16],9.0572
3,Cc1c(C(=O)NCCC2CCCCC2)sc2ncnc(N3CCCCC3C)c12 (stereo not drawn) [Compound 2040H10],−1.056
4,OCCNc1ncnc2sc3c(c12)CCCC3 [Compound 2051H22],0.936
5,CCOC(=O)c1sc2nc(C)nc(N3CCC(C)CC3)c2c1C [Compound 2007D06],0.2826
6,Cc1c(C(=O)NCCC(C)C)sc2ncnc(N3CCOCC3)c12 [Compound 2040F13],0.9277
7,CCNc1nc(SCc2ccc(Cl)cc2)nc2sc3c(c12)CCN(C)C3 [Compound 2054P05],−0.211
8,CNc1nc(=S)[nH]c2sc3c(c12)CCCC3 [2054 E08],0.2798
9,CCC1CCc2c(sc3ncnc(N4CCOCC4)c23)C1 (stereo not drawn) [BC33],42.416
10,Cc1nc(N2CCC(C)CC2)c2c(C)c(C(=O)N3CCN(c4ccc(F)cc4)CC3)sc2n1 [Compound 2040N10],3.1975
11,CC1CC(=O)N(c2ncnc3sc4c(c23)CCCC4)N1 (stereo not drawn) [2054 E16],0.62
12,CCOC(CNc1nc(C)nc2sc3c(c12)CCCC3)OCC [Compound 2040D04],4.66
13,Cc1cc(C)c(C)c(S(=O)(=O)N2CCN(c3ncnc4sc5c(c34)CCCC5)CC2)c1C [Compound 2012L13],−0.543
14,c1csc(CCNc2ncnc3sc4c(c23)CCC4)c1 [Compound 2005M12],0.0838
15,CC(C)CC(Nc1ncnc2sc3c(c12)CCC3)C(=O)O (stereo not drawn) [Compound 2012H20],0.1698
16,COc1ccc(CCNc2ncnc3sc4c(c23)CCCC4)cc1 [Compound 2012B19],43.053
17,Cc1nc(NCCc2ccccc2)c2c3c(sc2n1)CCCC3 [Compound 2008G09],0.0156
18,CCN(CC)c1ncnc2sc3c(c12)CCCC3 [BC44],85.067
19,CCNc1nc(SCC(=O)NC(=O)NCc2ccccc2)nc2sc3c(c12)CCN(C)C3 [Compound 2054N05],0.0285
20,CCN(CC)c1nc(C)nc2sc(C(=O)N3CCCCCC3)c(C)c12 [Compound 2040N12],12.239
21,O=C(O)CCNc1ncnc2sc3c(c12)CCCC3 [Compound 2012O16],−0.716

# Results, then the compound that gave them:
row,"Composite Z score, PDE4B3",Structure (SMILES)
1,0.3426,Cc1sc2ncnc(Nc3ccccc3)c2c1C [BC64]
2,78.662,Cc1c(C(=O)Nc2ccc(F)cc2F)sc2ncnc(N(C)c3ccccc3)c12 [Compound 58-9]
3,78.927,Cc1c(C(=O)Nc2ccc(F)cc2F)sc2ncnc(N3CCC(C)CC3)c12 [BC58]
4,3.2214,CCN(CC)c1nc(C)nc2sc(C(=O)Nc3cc(Cl)ccc3OC)c(C)c12 [Compound 2040L12]
5,35.319,O=C(Nc1ncnc2sc3c(c12)CCCCC3)c1ccc(F)cc1 [Compound 2012F09]
6,5.0875,CCOC(=O)c1sc2nc(Cc3ccccc3)nc(NCCC3CCCCC3)c2c1C [Compound 2040F07]
7,0.0615,O=C(/C=C/c1ccccc1)Nc1ncnc2sc3c(c12)CCC3 [Compound 2008K11]
8,−0.545,COc1ccc(NC(=O)c2sc3nc(C)nc(N(C)c4ccc(C(C)C)cc4)c3c2C)c(OC)c1 [Compound 2041I04]
9,0.2682,CCOC(=O)c1sc2nc(C)nc(N(C)Cc3ccccc3)c2c1C [Compound 2007L04]
10,5.3667,CCN(CC)c1ncnc2sc(C(=O)N(C)C3CCCCC3)c(C)c12 [Compound 2040J12]
11,16.5,Cc1nc(N2CCCCC2)c2c(C)c(C(=O)Nc3cccc(C(F)(F)F)c3)sc2n1 [Compound 2040F10]
12,33.162,Cc1c(C(=O)N(C)Cc2ccccc2)sc2ncnc(N3CCN(c4ccccc4)CC3)c12 [Compound 2041G21]
13,1.0041,CCOC(=O)c1ccccc1NC(=O)c1sc2nc(C)nc(N(CC)CC)c2c1C [Compound 2040P12]
14,4.5126,COc1cccc(NC(=O)c2sc3ncnc(N4CCc5ccccc5C4)c3c2C)c1 [Compound 2041K21]
15,0.3145,CCCCN(CC)C(=O)c1sc2ncnc(N3CCN(c4ccc(OC)cc4)CC3)c2c1C [Compound 2007H06]
16,−0.456,CCC(C)NC(=O)c1sc2nc(C)nc(N(C)c3ccc(C(C)C)cc3)c2c1C (stereo not drawn) [Compound 2041K04]
17,1.7278,COc1cc(OC)c(NC(=O)c2sc3ncnc(N4CCCCC4C)c3c2C)cc1Cl (stereo not drawn) [Compound 2040J10]
18,−0.408,COc1ccccc1CNC(=O)c1sc2ncnc(N3CCN(c4ccccc4F)CC3)c2c1C [2041 E21]
19,7.48,Cc1c(C(=O)N2CCCCCC2)sc2ncnc(N3CCN(c4ccccc4)CC3)c12 [Compound 2041I21]
